According to US20020037885A1, “Therapeutic compounds” (priority 1999, published 2002):
Like-named read-outs stand apart in the source and are kept apart here.

Tests used:
[1] = tested on: hyperpolarisation-activated inward cation current Ih in dorsal root ganglion (DRG) cells; assay: Inhibition of hyperpolarisation-activated cation current (Ih), whole cell voltage clamp on cultured DRG cells; assay type: cell-based; conditions: (-) log concentration at which Ih activation rate constant kact is reduced by 50%; mean; rat DRG cells
Method: A) determining the potency of compounds to inhibit the hyperpolarisation-activated inward cation current Ih in dorsal root ganglion (DRG) cells of the rat; the effect is measured as the decrease in Ih activation rate and is expressed as the half maximal effect concentration (IC50) or the negative logarithm of this IC50 (known as pIC50).
To obtain E15 DRGs, pregnant Wistar rats were sacrificed. Embryos were removed and spinal cords with DRG attached to both sides were dissected out and collected in Hanks balanced salt solution (HBSS; Gibco). DRG were separated from the spinal cord and pooled in HBSS without Ca^2+ and Mg^2+. Dissociation of intact DRG was started by incubation with a 0.25% trypsin solution for 30 min at 37° C. Trypsination was stopped by diluting the enzyme and centrifugation (1 min; 2500 rpm). After aspiration of the supernatant the tissue pellet was triturated with DMEMF10 (DMEM supplemented with 10% fetal bovine serum (Hyclone), 6 g/l glucose and 2 mM I-glutamine) and centrifuged for 10 min at 1700 rpm. Dissociated DRG cells were resuspended in culture medium (DMEMF10 with 50 ng/ml NGF 2.5S (Alomone labs)), counted and plated out in a density of 1-2.105 cells on collagen (50 μg/ml) and/or poly-l-lysine (10-20 μg/ml) coated glass coverslips in 24-well tissue culture plates. Plates were kept in a humidified incubator at 37° C. and 5% CO2 for 72 hrs. Glial cell proliferation was inhibited when necessary by adding cytosine arabinoside (Ara-c) at a concentration of 5.10^−7 M. After 3 days fresh culture medium was administered. Medium was subsequently changed every […].
DRG cells were sampled with the whole cell voltage clamp method. Glass electrodes were pulled from thick-walled borosilicate capillaries with filament (1 mm outer diameter). Pipette resistance was 2-5 MΩ. Series resistance (5-15 MΩ) was compensated for to ensure so that potential errors made in the determination of the actual membrane potential were less then 2 mV. Cell capacitance (10-75 pF) compensation was used to compensate for capacitive currents. The extracellular solution contained (in mM): NaCl 140; KCl 5; CaCl2 2; MgCl2 1; D(+) glucose 5.6;HEPES 5; Sucrose 30; pH=7.4. The pipette solution contained (in mM): K-gluconate 119; NaCl 5; KCl 13; CsCl 2; CaCl2 1; EGTA 10;HEPES 10; pH=7.2. Cells were preincubated for more then 1½ hours with different concentrations (1E-9 to 1E-4 M) of test compound dissolved in extracellular solution at room temperature (20° C.) in normal air. Larger cells that appeared round with a pronounced halo under phase-contrast microscopy were selected because almost all of them expressed Ih. Data were acquired with a Digidata 1200® analogue to digital interface using PCLAMP® software (both from Axon Instruments). For Ih activation the cell was held at −63 mV and stepped to −123mV (potentials after correction for liquid junction potential). Current traces were selected for soundness, averaged and fitted to a first order exponential using PCLAMP® software (fit between 60 and 950 ms to avoid biasing by transient currents). Activation time constants (τ) for Ih under different drug concentrations were derived from this fit. The activation rate constant for Ih is defined as kact=1/τ.
The pIC50 is the (-) log concentration of a compound at which the Ih activation rate constant kact is reduced by 50%. pIC50 for a compound could be estimated adequately by fitting kact to the logarithm of the concentration with a logistic function using PRISM® software (Graphpad Inc.). The function chosen is:
kact=A/(1+10^ (log([compound])+pIC50)); A is kact [compound]=0M.
Averaging all control measurements yields that A=3.52 s^−1 and the maximum kact was forced to this value for all compounds in this study. The Hill slope that normally is estimated in concentration-effect relations appeared to be about 1 and was subsequently fixed to this value. […]

[2] = tested on: marble burying behaviour in mice; assay: Mouse Marble Burying Assay (BUR); assay type: in vivo; conditions: Mus musculus, sc
Method: This assay was carried out essentially according to the procedure described by Treit et al. (1981) Pharmacol Biochem Behav; 15; 619-626.
The results are presented as BUR ED50 (sc). This is the effective dose causing 50% inhibition of burying compared to control mice.

[3] = tested on: REM sleep in male Wistar rats; assay: Rat Sleep Analysis: suppression of REM sleep; assay type: in vivo; conditions: first 3 hours after drug administration
Method: Suppression of REM sleep in male Wistar rats was measured after treatment with compounds according to the invention or reference antidepressants using the methods described by Ruigt et al.(Electroencephalography and clinic Neurophysiology, 1989, 73, pages 52-63 & 64-71)
The values reported in Table 1 are expressed as percentage change over placebo for the amount of REM sleep in the first 3 hours after drug administration.

[4] = effective dose causing 50% inhibition of burying compared to control mice, read-out: BUR ED50 (SC)
[5] = Table 2, read-out: BUR sc ED50(mg/kg)

Row | Compound | melting point | pIC50-Ih [1] | ED50 [2, 4] [mg/kg] | further results
1 | CCCCC(N)c1ccccc1-c1noc2ccccc12.Cl (stereo not drawn) [Example 15, 2-(1,2-Benzisoxazol-3-yl)-α-butyl-benzenemethanamine Hydrochloride] | – | 5.98 | – | –
2 | C=CC[C@H](N)c1ccccc1-c1noc2cc(F)ccc12.O=C(O)/C=C/C(=O)O [13(1), (S)-(−)-2-(6-fluoro-1,2-benzisoxazol-3-yl)-α-2-propenyl-benzenemethanamine (E)-butenedioate] | 146 to 149 °C | 6.13 | 1 | –
3 | C=CCC(N)c1ccccc1-c1cccc(C(F)(F)F)c1.O=C(O)/C=C/C(=O)O (stereo not drawn) [15 (34), 2-(3-trifluoromethylphenyl)-α-2-propenyl-benzenemethanamine (E)-butenedioate] | 194 to 196 °C | – | – | ED50 [2, 5]: 6.9 mg/kg
4 | C=CCC(N)c1ccccc1-c1noc2ccc(F)cc12.Cl (stereo not drawn) [11(3), 2-(5-fluoro-1,2-benzisoxazol-3-yl)-α-2-propenyl-benzenemethanamine hydrochloride] | 209 to 214 °C | – | 2.68 | –
5 | COCCCC/C(=N\OCCN)c1ccc(C(F)(F)F)cc1 [Fl, Fluvoxamine] | – | – | – | percentage change over placebo for the amount of REM sleep ([3]; dose 4.6 mg/kg IP): 40%; percentage change over placebo for the amount of REM sleep ([3]; dose 22 mg/kg IP): −100%
6 | CN(C)CCC=C1c2ccccc2CCc2ccccc21 [Am, Amitriptyline] | – | – | – | percentage change over placebo for the amount of REM sleep ([3]; dose 4.6 mg/kg IP): −22%; percentage change over placebo for the amount of REM sleep ([3]; dose 10 mg/kg IP): −100%
7 | C=CCC(N)c1ccccc1-c1ccccc1.Cl (stereo not drawn) [15 (4), 2-phenyl-α-2-propenyl-benzenemethanamine hydrochloride] | 214 to 218 °C | – | – | ED50 [2, 5]: 8.6 mg/kg
8 | C=CCC(N)c1ccccc1-c1ccc(Cl)s1.O=C(O)/C=C/C(=O)O (stereo not drawn) [15 (14), 2-(5-chlorothien-2-yl)-α-2-propenyl-benzenemethanamine (E)-butenedioate] | 192 to 199 °C | – | – | ED50 [2, 5]: 19 mg/kg
9 | C=CC[C@@H](N)c1ccccc1-c1noc2cc(Cl)ccc12.Cl [12(2), (R)-(+)-2-(6-chloro-1,2-benzisoxazol-3-yl)-α-2-propenyl-benzenemethanamine hydrochloride] | 144 to 159 °C | – | 3.4 | –
10 | C=CCC(N)c1ccccc1-c1noc2c1CCCC2.O=C(O)/C=C\C(=O)O (stereo not drawn) [15 (25), 2-(4,5,6,7-tetrahydro-1,2-benzisoxazol-3-yl)-α-2-propenyl-benzenemethanamine (Z)-butenedioate] | 144 to 145 °C | – | – | ED50 [2, 5]: 3.2 mg/kg
11 | CC(O)c1ccccc1-c1noc2ccccc12 (stereo not drawn) [Example 27, 2-(1,2-Benzisoxazol-3-yl)-α-methyl-benzenemethanol] | – | 5.50 | – | –
12 | O=C(NCCN1CCOCC1)c1ccc(Cl)cc1 [Mo, Moclobemide] | – | – | – | percentage change over placebo for the amount of REM sleep ([3]; dose 10 mg/kg IP): −61%; percentage change over placebo for the amount of REM sleep ([3]; dose 32 mg/kg IP): −100%
13 | COc1ccc(C(CN(C)C)C2(O)CCCCC2)cc1 (stereo not shown) [Ve, Venlafaxine] | – | – | – | percentage change over placebo for the amount of REM sleep ([3]; dose 3.2 mg/kg IP): −77%
14 | C=CCC(N)c1ccccc1-c1ccc(Cl)cc1F.O=C(O)/C=C/C(=O)O (stereo not drawn) [15 (37), 2-(4-chloro-2-fluorophenyl)-α-2-propenyl-benzenemethanamine (E)-butenedioate] | 213 to 215 °C | – | – | ED50 [2, 5]: 9 mg/kg
15 | C=CCC(N)c1ccccc1-c1noc2cc(Cl)ccc12.Cl (stereo not drawn) [11(2), 2-(6-chloro-1,2-benzisoxazol-3-yl)-α-2-propenyl-benzenemethanamine hydrochloride] | 174 to 185 °C | 6.44 | 0.7 | –

Now from value to compound, other results behind:

Row | melting point | Compound | pIC50-Ih [1] | ED50 [2, 4] [mg/kg] | further results
16 | 169 to 178 °C | C=CC[C@H](N)c1ccccc1-c1noc2cc(Cl)ccc12.Cl [Example 19(2), (S)-(−)-2-(6-chloro-1,2-benzisoxazol-3-yl)-α-2-propenyl-benzenemethanamine hydrochloride] | 6.79 | – | –
17 | 229 to 236 °C | CC(N)c1ccccc1-c1noc2ccccc12.Cl (stereo not drawn) [Example 39, 2-(1,2-Benzisoxazol-3-yl)-α-methyl-benzenemethanamine Hydrochloride] | 5.24 | – | –
18 | 191 °C | C=CC[C@H](N)c1ccccc1-c1noc2ccccc12.Cl [Example 13, (S)-2-(1,2-Benzisoxazol-3-yl)-α-2-propenyl-benzenemethanamine Hydrochloride] | 6.48 | 0.39 | percentage change over placebo for the amount of REM sleep ([3]; dose 0.1 mg/kg IP): −17%; percentage change over placebo for the amount of REM sleep ([3]; dose 0.32 mg/kg IP): −26%; percentage change over placebo for the amount of REM sleep ([3]; dose 1 mg/kg IP): −100%
19 | 151 to 153 °C | C=CCC(N)c1ccccc1-c1noc2ccncc12.O=C(O)/C=C\C(=O)O (stereo not drawn) [16 (7), 2-(isoxazolo[4,5-c]pyridin-3-yl)-α-2-propenyl-benzenemethanamine (Z)-butenedioate] | – | – | ED50 [2, 5]: 7.6 mg/kg
20 | 165 °C | O=C(O)C(=O)O.c1ccc(CNCc2ccccc2-c2noc3ccccc23)cc1 [Example 21(3), 2-(1,2-benzisoxazol-3-yl)-N-benzyl-benzenemethanamine ethanedioate] | 5.06 | – | –
21 | 191 °C | C=CCC(N)c1ccccc1-c1noc2ccccc12.Cl (stereo not drawn) [Example 11, 2-(1,2-Benzisoxazol-3-yl)-α-2-propenyl-benzenemethanamine Hydrochloride] | – | 1.04 | percentage change over placebo for the amount of REM sleep ([3]; dose 0.32 mg/kg IP): −44%; percentage change over placebo for the amount of REM sleep ([3]; dose 1 mg/kg IP): −88%
22 | 174 to 176 °C | C=CC[C@H](N)c1cc(F)ccc1-c1noc2ccccc12.O=C(O)/C=C/C(=O)O [Example 13(3), (S)-(−)-2-(1,2-benzisoxazol-3-yl)-5-fluoro-α-2-propenyl-benzenemethanamine (E)-butenedioate] | 5.98 | – | –
23 | 191 °C | C=CC[C@@H](N)c1ccccc1-c1noc2ccccc12.Cl [Example 12, (R)-2-(1,2-Benzisoxazol-3-yl)-α-2-propenyl-benzenemethanamine Hydrochloride] | 5.12 | – | –
24 | 210 to 246 °C (dec.) | Cl.NC(Cc1ccccc1)c1ccccc1-c1noc2ccccc12 (stereo not drawn) [36(1), 2-(1,2-benzisoxazol-3-yl)-α-benzyl-benzenemethanamine hydrochloride] | – | 2.5 | –
25 | 264 to 267 °C | Cl.NC(Cc1ccsc1)c1ccccc1-c1noc2ccccc12 (stereo not drawn) [36(2), 2-(1,2-benzisoxazol-3-yl)-α-[(thien-3-yl)-methyl)-benzenemethanamine hydrochloride] | – | 1.2 | –
